Laboratory results as given in publication PMC9786051, “Natural Product 2-Oxokolavenol Is a Novel FXR Agonist” (Molecules, 2022).

Tests used:
[1] = target: T1, Farnesoid X receptor (FXR) (Homo sapiens, UniProt Q96RI1); assay: AlphaScreen coactivator recruitment with purified FXR-LBD; also luciferase reporter (EC50 […]) and M265I/Y369F mutagenesis; format: binding
T1 construct: gene NR1H4; 6His-FXR-LBD (residues 243-472aa)
T1 sequence (Q96RI1 257-486): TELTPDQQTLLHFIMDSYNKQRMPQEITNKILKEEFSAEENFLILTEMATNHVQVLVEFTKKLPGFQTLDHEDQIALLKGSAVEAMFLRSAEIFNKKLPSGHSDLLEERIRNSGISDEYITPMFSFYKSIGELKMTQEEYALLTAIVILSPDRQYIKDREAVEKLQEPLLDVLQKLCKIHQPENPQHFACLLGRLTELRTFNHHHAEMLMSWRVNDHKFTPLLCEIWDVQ

[2] = target: T1, Farnesoid X receptor (FXR); assay: AlphaScreen coactivator recruitment with purified FXR-LBD; luciferase reporter; format: biochemical

SMILES | EC50 [1] [µM] | AlphaScreen coactivator recruitment with purified FXR-LBD; luciferase reporter [2]
CC1=CC(=O)C[C@@H]2[C@@](C)(CC/C(C)=C/CO)[C@H](C)CC[C@@]12C [2-oxokolavenol] | ~3.7 | –
CC1=CCC[C@@H]2[C@@](C)(CC/C(C)=C/CO)[C@H](C)CC[C@@]12C [kolavenol] | – | motifs bound to FXR-LBD in response to 2-oxokolavenol, 2-oxokolavelool, kolavenol, or OCA in the AlphaScreen assay
